Data reported in patent US8791064B2, “Beta-lactoglobulin-polysaccharide nanoparticles for hydrophobic bioactive compounds” (Technion Research and Development Foundation Ltd., priority 2008, dated 2014).
Several values for one entry are separate records, joined by “and”; a condition that tells them apart may be missing. Equal entries are not always repeated. Where two headings read alike, the source gives them in different places.

Tests used:
[1] = cited from earlier work; for pI of β-lactoglobulin: literature value (Jameson et al., 2002)
[2] = Partition of vitamin D2 between nanocomplex pellet and serum (ultracentrifugation, RP-HPLC); format: physicochemical
Method: To evaluate the encapsulation of the vitamin within the nanoparticles, the partition of the vitamin between the particles and the serum was studied. For this purpose, an ultra centrifuge (15,000×g) was used to separate the nanocomplexes (pellet) from the serum (supernatant), and the concentration of vitamin D2 in the pellet was compared to that in the serum. Vitamin content of particles and serum was analyzed by solvent extraction followed by reversed phase HPLC, according to the method described in Semo et al., 2007, Food Hydrocolloids 21:936. […] Therefore, vitamin concentration in the nanoparticle pellet was 55 times higher than vitamin concentration in the serum, and 5.7 times higher than the initial concentration of the vitamin in the dispersion (13.5 μg mL^−1).

[3] = Vitamin D2 accelerated shelf-life stress test at 30° C.; format: physicochemical; details: pH 4.25, 30° C., 125 hours
Method: FIG. 7: Effect of encapsulation on stability of vitamin D during an accelerated shelf-life stress test at pH 4.25: samples were stored at 30° C. in closed vials containing 10 mL of solution and 10 mL of air, for a period of 125 hours: (▪) VD2-loaded β-lactoglobulin) (▴) complexes of VD2-β-lactoglobulin-pectin (pH 4.25). (♦) control of unprotected VD2 in water.

[4] = Electrophoretic mobility / zeta potential; format: physicochemical
Excerpt: Four criteria were used in order to evaluate the β-lactoglobulin-polysaccharide nanocomplexes and find the conditions (pH and ratio) which yield transparent suspensions containing small and stable nanoparticles: Sedimentation—Qualitative observation of the solutions in glass vials, following overnight equilibration at room temperature; Turbidity—Measured by an Ultrospec 3000 spectrophotometer (GE Healthcare, Life Sciences, UK), at 600 nm using 1 cm path cuvettes: Samples were vortexed prior to analysis; Electrophoretic mobility (EM or μe)—Measured using a zeta potential/particle size analyzer NICOMP™ 380 (Particle Sizing Systems Ltd. Santa Barbara, Calif., Agilent Technologies Inc., USA). The EM was measured under a 3 V/cm e-field at 25° C.; and Particle size—measured by Dynamic Light Scattering using the NICOMP™380 at 23° C. using 0.933 cp for the viscosity of the medium.
The stability of these colloidal systems was studied by measuring the electrophoretic mobility (EM) of the colloidal particles (FIGS. 12 and 13). Because the ionic strength of the studied systems was very low, and the particles are both very small and “soft” (being aggregates of oppositely charged polymers), the precise calculation of zeta potential from EM is not possible, due to the complexity of the system, and the limitations of currently available theoretical models. […]

## CC/C=C\C/C=C\C/C=C\C/C=C\C/C=C\C/C=C\CCC(=O)O [DHA, docosahexaenoic acid]
[1]; Namani et al., 2007
  pKa of DHA: ≈ 8.5

## C=C1CC[C@H](O)C/C1=C/C=C1\CCC[C@]2(C)[C@@H]([C@H](C)/C=C/[C@H](C)C(C)C)CC[C@@H]12 [Vitamin D2, ergocalciferol]
[2]; initial concentration 13.5 μg mL^−1
  vitamin concentration in the nanoparticle pellet relative to the initial concentration in the dispersion: 5.7 times higher
[2]; β-lactoglobulin-pectin nanocomplex dispersion centrifuged at 15,000×g
  Vitamin D2 concentration in the supernatant (serum): 1.4 µg/mL
[2]; β-lactoglobulin-pectin nanocomplexes
  vitamin concentration in the nanoparticle pellet relative to the serum: 55 times higher
[2]; β-lactoglobulin-pectin nanocomplexes separated at 15,000×g, initial concentration 13.5 μg mL^−1
  Vitamin D2 concentration in the pellet: 77.26 µg/mL
[3]; unprotected control, vitamin D dispersion in water
  degradation of the vitamin (ranking): fastest degradation rate
[3]; vitamin D2 in β-lactoglobulin-pectin nanocomplexes, closed vials with 10 mL air
  degradation of the vitamin (ranking): slowest degradation

## β-lactoglobulin: bovine β-lactoglobulin isolate (Davisco), major whey protein, 18.4 kDa
[4]; 0.05% β-lactoglobulin alone, 25° C., low ionic strength (FIG. 13)
  isoelectric point from electrophoretic mobility versus pH: 5.2
[4]; pure β-lactoglobulin 0.05% wt, no pectin, pH 3.5 to 4.5
  zeta potential: +6 mV
[1]
  pI of β-lactoglobulin: 5.18 and 5.1
[1]; listed as lactoglobulin
  pI of β-lactoglobulin: 5.18
